Measured values published in US20210230213A1, “ARAMCHOL SALTS” (GALMED RESEARCH AND DEVELOPMENT LTD., priority 2013, published 2021).
Values after ≈ are worked out from the molar mass of the structure shown. Where a name gives a salt, the structure may show the parent alone. Read-outs that look alike come from different tables or passages of the source. Each block holds one compound with its values, some of them ahead of it.

Experiments:
[1] = physchem; conditions: 50 °C, organic solvent or mixture
[2] = Dynamic Vapour Sorption (DVS); type: physicochemical
Experimental: The samples was weighed in a glass pan, typically 20-30 mg, and equilibrated at 0% relative humidity (RH). After the material had dried, the RH was increased with 10% per step for 1 hour per increment, ending at […].
The software used for data collection was DVSWin v3.01 No Video. Data analysis was performed using DVS Standard Analysis Suite v6.3.0 (Standard).
After completion of sorption cycle, the material was dried. XRPD was performed before and after DVS.

[3] = In vivo permeability / PK after intrajejunal administration in cannulated rats (Example 7); design: species or system male Wistar rats; conditions: rat; for Tmax: median; for Cmax: 100 mg/kg (based on free acid) in PBS 30 mg/mL, plasma Aramchol (free acid)
Experimental: An in vivo permeability study of Aramchol salts was performed in male Wistar rats cannulated in the jugular vein and in the jejunum. Intestinal cannulation was performed in order to bypass protonation of Aramchol salts in acidic gastric pH. Aramchol salts solubilized in PBS (30 mg/mL) were administered to rats intestine (jejunum) in a dose of 100 mg/kg (based on free acid), via a cannula inserted into the proximal side of the jejunum. A suspension of Aramchol free acid (in PBS, 30 mg/mL) was administered via the same route and was used as control. Blood samples were withdrawn via a cannula inserted into jugular vein at pre-determined time points (pre-dose, 1 hr, 2 hr, 4 hr, 8 hr, 12 hr, 24 hr post dose). Plasma concentrations of Aramchol (free acid) were measured using a liquid chromatography-tandem mass spectrometry (LC-MS-MS) method by Analyst Bioanalytical Laboratories, Israel. All PK parameters were calculated using non-compartmental analysis. Only those plasma concentrations equal to or greater than the lower limit of quantitation (LOQ) (48.66 ng/mL) were used in the analysis. Plasma concentrations <LOQ that occurred from pre-dose to the first concentration ≥LOQ were treated as 0. Actual sampling times were used for all pharmacokinetic analyses. The following PK parameters were calculated: maximum plasma concentration (Cmax), time to Cmax (Tmax), area under the plasma concentration-time curve from time of administration until the last plasma concentration (AUC0-4), AUC/dose, elimination half-life (t½). Cmax and Tmax were taken directly from the data. Area under the curve from zero to the final sample with a concentration ≥LOQ. AUC0-4 was calculated using the linear trapezoidal method.

[4] = Saturated solubility in buffer solutions and bio-relevant media at 37° C. (Example 6); type: physicochemical; conditions: for solubility at 30 min / solubility at 24 h: thermodynamic from solid
[5] = Aqueous solubility at 20° C., shake-flask, stepwise water addition (Example 2); type: physicochemical; conditions: for solubility: water, 20 °C, thermodynamic from solid, 20° C.
Experimental: The Aramchol salts of the present invention were further assessed for their solubility in water. […] 5 mg of each salt was weighed. Water was added stepwise until a clear solution was obtained (Table 2, solubility in water). The pH of each solution was measured (Table 2, pH after solubility).

[6] = Fill weight of size 00 HPMC capsule; type: physicochemical; conditions: hard HPMC capsule size 00, filled as is without tapping
From the text: Aramchol (free acid), and the three salts were filled as are, into hard HPMC (Hypromellose; Capsule size 00 (CapsCanada, ON, Canada) without taping, fill weight is presented in table 9.

[7] = Stability of Aramchol free acid; type: physicochemical; conditions: 6 months 40° C./75% RH; 12 months 25° C./60% RH; 30° C./65% RH
Experimental: For Aramchol free acid, 6 months stability data have been generated at 40° C./75% relative humidity and for 12 months at real time 25° C./60% relative humidity and also at the intermediate conditions of 30° C./65% relative humidity.

[8] = Solubility of Aramchol (free acid) in aqueous media; type: physicochemical
[9] = Clinical study, plasma Aramchol at steady state after 300 mg BID; type: in vivo, humans; conditions: human, po
[10] = in vivo; conditions: dog, in vivo
Experimental: Capsules containing 100 mg of Aramchol were dosed to dogs as either the free acid or the meglumine salt.
The complete data-set across all animals and time-points for each dose form (free acid or meglumine salt) were fit to single compartment PK models with first order rate of absorption Ka (h−1) and elimination parameterised by CL and V (rate of elimination=CL/V, h−1). For the meglumine salt group, the first dose data for M5 was removed.
Capsules containing 100 mg of Aramchol were dosed to dogs as either the free acid or the meglumine salt BID. […] A clinical study that investigated the plasma concentration of Aramchol after oral dosing of 300 mg BID at steady state was conducted in 16 healthy volunteers.

[11] = Bulk and tapped density; type: physicochemical
From the text: Measurements of tapped and bulk densities are used to predict the flow properties and compressibility of powders. These two properties are important for manufacture of solid dosage formulations, such as tablets and capsules. Compounds with low values of tapped and bulk densities may be subject to difficulties in tablet compression, and therefore may require additional processing for improving flow properties. […] Therefore, to improve flow properties a wet granulation process is used prior to tablet compression.

[12] = Twice daily administration for 10 days of Aramchol and Aramchol meglumine in humans (Example 9); type: in vivo; conditions: free acid 300 mg, meglumine salt 383 mg
Experimental: 300 mg aramchol free acid were administered to human subjects twice daily, and 383 mg aramchol meglumine salt were administered to human subjects twice daily, as detailed in FIG. 13.

[13] = RH raised from 0% in 10% steps to 95% RH, stepwise, reversible
[14] = male, Wistar, plasma, 100 mg/kg, mean ± standard error
[15] = male, Wistar, plasma, 100 mg/kg, mean ± standard error, read-out: AUC 0-t
[16] = male, Wistar, plasma, 100 mg/kg, read-out: Tmax
[17] = male, Wistar, mean ± standard error, read-out: Cmax
[18] = 100 mg/kg, mean ± standard error
[19] = water, Aramchol free acid and base 1:1, 50° C.
[20] = Demi-Water (pH 7.8), 24 h, 37° C.
[21] = FaSSIF (pH 6.5), 30 min, 37° C.
[22] = FeSSIF (pH 5.0), 30 min, 37° C.
[23] = Phosphate buffer pH 7.0, 24 h, 37° C.

solubility at 2 h [1]: > 50000 µg/mL
Mass uptake (DVS) [2, 13]: 9.4% (stepwise; reversible)
Half-life [3, 14]: 6.5 ± 2.4 h
AUC(0-t) [3, 15]: 18.6 ± 2.28 µg·h/mL
Tmax [3, 16]: 2 h
Cmax [3, 17]: 2250 ± 208 ng/mL
AUC/dose [3, 18]: 184.7 ± 22.7 (4) hr × ng × kg/mL × mg
Dissolved (50 in g in 1) at 50° C. [19]: No
solubility [4, 20]: Gel
solubility ([4]; Demi-Water (pH 7.8), 24 h, 37° C., listed as tromethamine salt): turned into gets
solubility [4, 21]: Gel
solubility ([4]; FaSSIF (pH 6.5), 24 h, 37° C.): Gel
solubility [4, 22]: Gel
solubility ([4]; FeSSIF (pH 5.0), 24 h, 37° C.): Gel
solubility ([4]; PBS pH 7.4, 24 h, 37° C.): Gel
solubility ([4]; Phosphate buffer pH 6.5, 30 min, 37° C.): Gel
solubility ([4]; Phosphate buffer pH 6.5, 24 h, 37° C.): Gel
solubility [4, 23]: Gel
solubility at 30 min ([4]; aqueous buffer, PBS pH 7.4, 30 min, 37° C.): 23000 µg/mL
solubility at 30 min ([4]; aqueous buffer, Phosphate buffer pH 7.0, 30 min, 37° C.): 29400 µg/mL
solubility at 30 min ([4]; saline or isotonic, Saline pH 5.5, 30 min, 37° C.): 30 µg/mL
solubility at 30 min ([4]; simulated gastric fluid, HCl buffer pH 1.2, 30 min, 37° C.): 20 µg/mL
solubility at 24 h ([4]; simulated gastric fluid, HCl buffer pH 1.2, 24 h, 37° C.): 290 µg/mL
solubility at 30 min ([4]; Demi-Water (pH 7.8), 30 min, 37° C.): 45000 µg/mL
pH of solution ([5]; after solubility test in water, XRPD: Crystalline): 8
solubility ([5]; XRPD: Crystalline): 32000 to 95000 µg/mL
solubility ([5]; XRPD: Poorly crystalline): < 11000 µg/mL
fill weight of one 00 size capsule [6]: 0.31 gram
Compound: CCCCCCCCCCCCCCCCCCCC(=O)N[C@H]1CC[C@@]2(C)[C@@H](C1)C[C@@H](O)[C@@H]1[C@@H]2C[C@H](O)[C@]2(C)[C@@H]([C@H](C)CCC(=O)O)CC[C@@H]12 [Tromethamine, 3β-arachidylamido-7α,12α-dihydroxy-5β-cholan-24-oic acid tromethamine salt]

Compound: 3β-arachidylamido-7α,12α-dihydroxy-5β-cholan-24-oic acid lysine salt [L-Lysine]
Mass uptake (DVS) [2, 13]: 23.1% (stepwise, reversible)
Cmax ([3]; mean ± standard error): 7294.2 ± 5463.0 (5) ng/mL
AUC(0-t) [3, 18]: 26460.3 ± 9415.5 (5) hr × ng/mL
AUC/dose [3, 18]: 270.0 ± 99.0 (5) hr × ng × kg/mL × mg
t1/2 [3, 18]: 5.2 ± 1.0 (5) hr
Tmax ([3]; 100 mg/kg): 2.0 (5) [2-4] hr
Dissolved (50 in g in 1) at 50° C. [19]: No
fill weight of one 00 size capsule [6]: 0.33 gram

Compound: NCCO [Ethanolamine]
Mass uptake (DVS) [2, 13]: 13.2% (stepwise; reversible)

Compound: Choline
Dissolved (50 in g in 1) at 50° C.: Yes
salt remains in solution after cooling to 20° C.: yes

Compound: CN(C)CCO [Deanol]
Mass uptake (DVS) [2, 13]: 17.3% (stepwise; reversible)
Dissolved (50 in g in 1) at 50° C. [19]: Yes
salt remains in solution after cooling to 20° C. (water, cooled to 20° C.): yes

Compound: CCNCC [Diethylamine]
Mass uptake (DVS) [2, 13]: 14.8% (stepwise; reversible)
Dissolved (50 in g in 1) at 50° C. [19]: Yes
salt remains in solution after cooling to 20° C. (water, cooled to 20° C.): no

Compound: c1ccc(CNCCNCc2ccccc2)cc1 [Benzathine]
Dissolved (50 in g in 1) at 50° C. [19]: No

Compound: 2-diethylamino-ethanol
Mass uptake (DVS) [2]: 12.1% (stepwise; reversible)
salt remains in solution after cooling to 20° C.: yes
Dissolved (50 in g in 1) at 50° C. (50° C.): Yes

stability [7]: no significant changes to any parameters
solubility ([8]; FeSSIF, pH 5, fessif, read-out: max solubility in FeSSIF): 660 µg/mL (≈ 940 µM)
solubility ([8]; aqueous buffer, buffer pH 6.0, read-out: solubility in buffer at pH 6.0): < 1 µg/mL
Half-life [3, 14]: 4.5 h
AUC(0-t) [3, 15]: 12.1 ± 3.63 µg·h/mL
Tmax [3, 16]: 4 h
Cmax [3, 17]: 1360 ± 359 ng/mL
AUC/dose [3, 18]: 124.2 ± 38.9 (5) hr × ng × kg/mL × mg
AUC [9]: 114 µg·h/mL
AUC0-12 h/AUCinf [10]: 0.97
Ka [10]: 0.234 h⁻¹
V [10]: 16893
clearance [10]: 6.82 mL/min
AUC ([10]; 100 mg): 901 µg·h/mL
AUC(0-inf) ([10]; AUCinf D1): 241 µg·h/mL
AUC(0-inf) ([10]; AUCinf from day 11 onwards): 1130 µg·h/mL
Half-life ([10]; po, 100 mg, Half-life): 25.9 h
solubility ([4]; Acetate buffer pH 4.5, 24 h, 37° C.): Not soluble
solubility [4, 20]: Not soluble
solubility ([4]; HCl buffer pH 1.2, 24 h, 37° C.): Not soluble
solubility [4, 23]: Not soluble
solubility ([4]; Saline pH 5.5, 24 h, 37° C.): Not soluble
solubility at 24 h ([4]; phosphate buffer, pH 6.5, 24 h): < 1 µg/mL
solubility at 30 min [4, 21]: 50 µg/mL (≈ 71.2 µM)
solubility at 24 h ([4]; FaSSIF (pH 6.5), 24 h, 37° C.): 130 µg/mL (≈ 185 µM)
solubility at 30 min [4, 22]: 660 µg/mL (≈ 940 µM)
solubility at 24 h ([4]; FeSSIF (pH 5.0), 24 h, 37° C.): 310 µg/mL (≈ 442 µM)
Bulk density [11]: 0.15 g/mL
Tapped density [11]: 0.17 g/mL
fill weight of one 00 size capsule [6]: 0.15 gram
AUCss 0-12 h ([12]; BID for 10 days): 53 µg·h/mL
Cavg ([12]; BID for 10 days): 4154 ng/mL
AUC ([12]; human, blood, BID): 53 µg·h/mL
Compound: CCCCCCCCCCCCCCCCCCCC(=O)N[C@H]1CCC2(C)C(CC(O)C3C2C[C@H](O)C2(C)C(C(C)CCC(=O)O)CCC32)C1 (stereo in doubt) [Aramchol (free acid), 3β-arachidylamido-7α,12α-dihydroxy-5β-cholan-24-oic acid, reference compound]

Compound: Diethanolamine
Mass uptake (DVS) [2, 13]: 6.9% (stepwise; reversible)
Dissolved (50 in g in 1) at 50° C. [19]: Yes
salt remains in solution after cooling to 20° C. (water, cooled to 20° C.): yes

Compound: L-Arginine
Dissolved (50 in g in 1) at 50° C. [19]: Yes
salt remains in solution after cooling to 20° C. (water, cooled to 20° C.): no

Compound: CCCCCCCCCCCCCCCCCCCC(=O)NC1CCC2(C)C(C1)CC(O)C1C2CC(O)C2(C)C(C(C)CCC(=O)O)CCC12.N (stereo not drawn) [Ammonia]
Mass uptake (DVS) [2]: 5.4% (stepwise; reversible)
Dissolved (50 in g in 1) at 50° C.: No
salt remains in solution after cooling to 20° C.: no
